# US9708314B2, “Heterocyclic amide compound” (NISSAN CHEMICAL INDUSTRIES, LTD., priority 2013, dated 2017)
# Legend:
# Type in all cases: in vivo
# [1] = test system: Echinochloa oryzacola Vasing.; assay: Test Example 1: herbicidal activity, application before weed generation in submerged conditions; details: Application herbicide amount 320 g/ha; Seventeenth Table
# Procedure, shortened: (§1)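 Rating, on a six-step scale from almost no effect (0) to almost completely withered (5), was made three weeks after pre-emergence treatment. Treatment was surface application to flooded pots at g/ha rates, with plants kept at 25° C. to 30° C.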
# Monochoria vaginalis = assay: as above; details: Application herbicide amount 320 g/ha; Seventeenth Table
# Procedure, shortened: as §1
# Scirpus juncoides = assay: as above; details: Application herbicide amount 320 g/ha; Seventeenth Table
# Procedure, shortened: as §1
# [2] = test system: transplanted Oryza sativa; assay: Test Example 1: effect on crop, application before weed generation in submerged conditions; details: Application herbicide amount 320 g/ha; Seventeenth Table
# Procedure, shortened: as §1
# Abutilon theophrasti = assay: Test Example 4: herbicidal effect by application to foliage (diluvial soil, plastic box); details: application to foliage, application herbicide amount 320 g/ha
# Procedure, shortened: (§2)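 Emulsion-formulated compound, diluted to a predetermined g/ha dose, applied by small sprayer to leaves and stems of 14-day-old seedlings grown in sterilized diluvial soil. Effect rated on 0–5 herbicidal-ratio scale three weeks on.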
# Alopecurus myosuroides = assay: as above; details: application to foliage, application herbicide amount 320 g/ha
# Procedure, shortened: as §2
# Apera spica-venti. = assay: as above; details: application to foliage, application herbicide amount 320 g/ha
# Procedure, shortened: as §2
# Avena fatua = assay: as above; details: application to foliage, application herbicide amount 320 g/ha
# Procedure, shortened: as §2
# Chenopodium album = assay: as above; details: application to foliage, application herbicide amount 320 g/ha
# Procedure, shortened: as §2
# Digitaria ciliaris = assay: as above; details: application to foliage, application herbicide amount 320 g/ha
# Procedure, shortened: as §2
# [3] = test system: Echinochloa crus-galli var. crus-galli; assay: as above; details: application to foliage, application herbicide amount 320 g/ha
# Procedure, shortened: as §2
# Galium spurium = assay: as above; details: application to foliage, application herbicide amount 320 g/ha
# Procedure, shortened: as §2
# Lolium multiflorum Lam. = assay: as above; details: application to foliage, application herbicide amount 320 g/ha
# Procedure, shortened: as §2
# Setaria viridis = assay: as above; details: application to foliage, application herbicide amount 320 g/ha
# Procedure, shortened: as §2
# Veronica persica = assay: as above; details: application to foliage, application herbicide amount 320 g/ha
# Procedure, shortened: as §2
SMILES,A: Echinochloa oryzicola Vasing. (herbicidal effect grade) [1],C: Monochoria vaginalis (herbicidal effect grade) (Monochoria vaginalis),B: Scirpus juncoides (herbicidal effect grade) (Scirpus juncoides),a: transplanted Oryza sativa (effect on crop grade) [2],M (Abutilon theophrasti) herbicidal effect (Abutilon theophrasti),J (Alopecurus myosuroides) herbicidal effect (Alopecurus myosuroides),L (Apera spica-venti.) herbicidal effect (Apera spica-venti.),I (Avena fatua) herbicidal effect (Avena fatua),O (Chenopodium album) herbicidal effect (Chenopodium album),F (Digitaria ciliaris) herbicidal effect (Digitaria ciliaris),H (Echinochloa crus-galli var. crus-galli) herbicidal effect [3],Q (Galium spurium) herbicidal effect (Galium spurium),K (Lolium multiflorum Lam.) herbicidal effect (Lolium multiflorum Lam.),G (Setaria viridis) herbicidal effect (Setaria viridis),R (Veronica persica) herbicidal effect (Veronica persica)
COc1ccc(-c2nnc3c(C(=O)Nc4nnc(C)o4)ccc(C(F)(F)F)n23)cc1 [1-016],4 (Herbicidal ratio of 70% or more and less than 90%),0 (Herbicidal ratio of 5% or less (almost no effect)),0 (Herbicidal ratio of 5% or less (almost no effect)),0 (Herbicidal ratio of 5% or less (almost no effect)),5 (Herbicidal ratio of 90% or more (almost completely withered)),1 (Herbicidal ratio of 5% or more and less than 20%),0 (Herbicidal ratio of 5% or less (almost no effect)),1 (Herbicidal ratio of 5% or more and less than 20%),5 (Herbicidal ratio of 90% or more (almost completely withered)),4 (Herbicidal ratio of 70% or more and less than 90%),5 (Herbicidal ratio of 90% or more (almost completely withered)),2 (Herbicidal ratio of 20% or more and less than 40%),1 (Herbicidal ratio of 5% or more and less than 20%),2 (Herbicidal ratio of 20% or more and less than 40%),4 (Herbicidal ratio of 70% or more and less than 90%)
Cc1nnc(NC(=O)c2ccc(C(F)(F)F)n3c(-c4ccc(Cl)cc4)nnc23)o1 [1-017],3 (Herbicidal ratio of 40% or more and less than 70%),0 (Herbicidal ratio of 5% or less (almost no effect)),2 (Herbicidal ratio of 20% or more and less than 40%),0 (Herbicidal ratio of 5% or less (almost no effect)),5 (Herbicidal ratio of 90% or more (almost completely withered)),0 (Herbicidal ratio of 5% or less (almost no effect)),0 (Herbicidal ratio of 5% or less (almost no effect)),0 (Herbicidal ratio of 5% or less (almost no effect)),5 (Herbicidal ratio of 90% or more (almost completely withered)),3 (Herbicidal ratio of 40% or more and less than 70%),5 (Herbicidal ratio of 90% or more (almost completely withered)),0 (Herbicidal ratio of 5% or less (almost no effect)),0 (Herbicidal ratio of 5% or less (almost no effect)),0 (Herbicidal ratio of 5% or less (almost no effect)),4 (Herbicidal ratio of 70% or more and less than 90%)
"CSc1nnc2c(C(=O)Nc3nnc(C)o3)ccc(C(F)(F)F)n12 [1-018, N-(5-Methyl-1,3,4-oxadiazol-2-yl)-3-(methylthio)-5-(trifluoromethyl)-[1,2,4]triazol o[4,3-a]pyridine-8-carboxamide]",1 (Herbicidal ratio of 5% or more and less than 20%),5 (Herbicidal ratio of 90% or more (almost completely withered)),3 (Herbicidal ratio of 40% or more and less than 70%),0 (Herbicidal ratio of 5% or less (almost no effect)),3 (Herbicidal ratio of 40% or more and less than 70%),0 (Herbicidal ratio of 5% or less (almost no effect)),0 (Herbicidal ratio of 5% or less (almost no effect)),0 (Herbicidal ratio of 5% or less (almost no effect)),5 (Herbicidal ratio of 90% or more (almost completely withered)),0 (Herbicidal ratio of 5% or less (almost no effect)),1 (Herbicidal ratio of 5% or more and less than 20%),0 (Herbicidal ratio of 5% or less (almost no effect)),0 (Herbicidal ratio of 5% or less (almost no effect)),2 (Herbicidal ratio of 20% or more and less than 40%),4 (Herbicidal ratio of 70% or more and less than 90%)
COCCOCc1nnc2c(C(=O)Nc3nnc(C)o3)ccc(C(F)(F)F)n12 [1-019],5 (Herbicidal ratio of 90% or more (almost completely withered)),4 (Herbicidal ratio of 70% or more and less than 90%),3 (Herbicidal ratio of 40% or more and less than 70%),2 (Herbicidal ratio of 20% or more and less than 40%),4 (Herbicidal ratio of 70% or more and less than 90%),2 (Herbicidal ratio of 20% or more and less than 40%),4 (Herbicidal ratio of 70% or more and less than 90%),3 (Herbicidal ratio of 40% or more and less than 70%),5 (Herbicidal ratio of 90% or more (almost completely withered)),5 (Herbicidal ratio of 90% or more (almost completely withered)),5 (Herbicidal ratio of 90% or more (almost completely withered)),4 (Herbicidal ratio of 70% or more and less than 90%),2 (Herbicidal ratio of 20% or more and less than 40%),4 (Herbicidal ratio of 70% or more and less than 90%),4 (Herbicidal ratio of 70% or more and less than 90%)
Cc1nnc(NC(=O)c2ccc(C(F)(F)F)n3c(COCC(F)(F)F)nnc23)o1 [1-020],4 (Herbicidal ratio of 70% or more and less than 90%),2 (Herbicidal ratio of 20% or more and less than 40%),3 (Herbicidal ratio of 40% or more and less than 70%),0 (Herbicidal ratio of 5% or less (almost no effect)),2 (Herbicidal ratio of 20% or more and less than 40%),1 (Herbicidal ratio of 5% or more and less than 20%),1 (Herbicidal ratio of 5% or more and less than 20%),1 (Herbicidal ratio of 5% or more and less than 20%),5 (Herbicidal ratio of 90% or more (almost completely withered)),4 (Herbicidal ratio of 70% or more and less than 90%),5 (Herbicidal ratio of 90% or more (almost completely withered)),3 (Herbicidal ratio of 40% or more and less than 70%),1 (Herbicidal ratio of 5% or more and less than 20%),3 (Herbicidal ratio of 40% or more and less than 70%),3 (Herbicidal ratio of 40% or more and less than 70%)
